Three compounds from article PMC8447191, “Peptide Amphiphilic-Based Supramolecular Structures with Anti-HIV-1 Activity” (Bioconjugate Chemistry, 2021) can be followed below.

pIC50: −log10 of the molar value. *1 amine or outer side, *2 acyl side, *3 side chain or, on linkers, in order; H or OH if unused. Where a SMILES comes first, the peptide text is derived from it. Side-chain parts run from the residue outwards. The star is where a group is joined. X1 = CC(C)CCC[C@@H](C)[C@H]1CC[C@H]2[C@@H]3CC=C4C[C@@H](OC(=O)CSC[C@H](N)C(=O)*)CC[C@]4(C)[C@H]3CC[C@]12C; PEG28 = NCCOCCOCCOCCOCCOCCOCCOCCOCCOCCOCCOCCOCCOCCOCCOCCOCCOCCOCCOCCOCCOCCOCCOCCOCCOCCOCCOCCOCCC(=O)O; N(octadecyl)2 = CCCCCCCCCCCCCCCCCCN(CCCCCCCCCCCCCCCCCC)*; Suc = O=C(CCC(=O)[*:2])[*:1]

Data set [1] relates to HIV-1BaL. The data set is classed as cell-based. The settings on record: HIV-1BaL, TZM-bl cells; peptide 10-0.00061 μM for 1 h at 37 °C before virus; luciferase after 48 h; sigmoid fit; mean of triplicates. On the procedure:
HIV-1BaL[52] was provided by the NIH AIDS Research & Reference Reagent Program (http://www.aidsreagent.org/). Viral stock was prepared by passage through activated PBMCs[53] for 11 days.
Luciferase-reporter HeLa cells stably transfected to express CD4 and CCR5; TZM-bl cells[54]−[56] were grown in Dulbecco’s Minimal Essential Medium (DMEM) (Sigma-Aldrich, Inc., St. Louis, MO) containing 10% fetal calf serum (FCS), 2 mM L-glutamine, and antibiotics (100 U of penicillin/mL, 100 μg of streptomycin/mL) at 37 °C in an atmosphere containing 5% CO2.
All inhibition assays in cellular and tissue explants models were performed using a standardized amount of virus culture supernatant normalized for infectivity. TZM-bl cells were incubated with serial dilutions of peptides (from 10 μM to 0.00061 μM) for 1 h at 37 °C, prior to challenge with HIV-1BaL. Luciferase expression (r.l.u. values) was determined after 48 h. Alternatively, tissue explants were incubated with serial dilutions of peptide (from 100 μM to 0.1 μM) for 1 h before virus (10^4 TCID50/mL) was added for 2 h. Explants were then washed four times with PBS to remove unbound virus and drug. Colorectal explants were then transferred onto gelfoam rafts (Welbeck Pharmaceuticals, UK) and cultured for 15 days as described previously[57] […]. Explants were cultured for up to 15 days in the absence of peptide. Approximately 50% of the supernatants were harvested every 2–3 days and explants were re-fed with fresh media. The extent of viral replication in tissue explants was determined by measuring the p24 antigen concentration in supernatants (INNOTEST HIV antigen mAb; Fujirebio Europe, Belgium). The extent of inhibition by each peptide was calculated. The percentage of inhibition was normalized relative to the r.l.u, for TZM-bl cells, or p24, for tissue explants, values obtained for cells or explants cultured in the absence of virus (100% inhibition) and for cells or explants infected with virus in the absence of peptide (0% inhibition). Data are the mean (±SEM) of triplicates. When a dose–response curve was obtained, IC50 and, if possible, IC95 values were calculated from sigmoid curve fits (GraphPad Prism). For all curves, R^2 is >0.7.

Test in data set [2]: not given
The source holds these as a separate data set.

Data set [3] can be described thus: Visual stability and aspect of POPC vesicles mixed with PAs (SAXS samples). The class given is physicochemical. The settings on record: POPC 20 mM + 2 mM PA, 0.5% DMSO. On the procedure:
In Figure 5A,B, we show the spectra corresponding to POPC 20 mM and POPC 20 mM + 2 mM PAs (all of them in the presence of 0.5% DMSO). The band centered at 1.2 nm^–1 and the secondary band at 3.2 nm^–1 were typical of unilamellar vesicles.[35]
The incorporation of PAs had some distinct consequences. The first and more obvious one is the distinction between stable and unstable systems.

Data set [4] is described as follows: MTT cytotoxicity assay. The data set is classed as cell-based. The settings on record: human, HeLa-env cells, PAs coassembled with 5% FAM, 40-2.3 μM, absorbance 560 nm. On the procedure:
The metabolic activity of the cell line, related to the cytotoxic effect of the compounds to be tested, is measured after 24 h using the MTT assay. This assay is based on the metabolic reduction of 3-(4,5-dimethylthiazol-2-yl)-2,5-diphenyl-2H-tetrazolium bromide (MTT), carried out by the mitochondrial enzyme succinate dehydrogenase, in a colored compound of blue color (formazan) that can be monitored by absorbance spectroscopy at 560 nm, allowing determination of the mitochondrial functionality of the treated cells.
The HeLa-env cell line is seeded in 96-well plates with an initial density of 15,000 cells per well in 100 μL of culture medium (Dulbecco’s modified Eagle’s medium, DMEM, with 10% FBS added) and incubated for 24 h at 37 °C and 5% CO2 to allow their adhesion. The cell monolayers are washed with PBS, and then 100 μL of PAs formulations (peptide amphiphiles coassembled with 5% FAM) are added in a concentration range from 40 μM to 2.3 μM. The plates are kept in incubation for further 24 h.
At the end of the incubation time, the cells are incubated for 3 h with 1 mg/mL of MTT, dissolved in culture medium without FBS, to allow the formation of formazan crystals. Subsequently, 100 μL of DMSO are added to wells, stirring the plates for 30 min at room temperature to facilitate the complete dissolution of the crystals. Finally, the absorbance at 560 nm is measured in a microplate reader.
The results are expressed as relative percentage between absorbance of PA formulations against absorbance of its DMSO controls and CC50 and CC25 values are taken from dose–response curves.

Test in data set [5]: not given
The source holds these as a separate data set.

In the case of `CC[C@H](C)[C@H](NC(=O)[C@@H](NC(=O)CNC(=O)[C@H](CCCNC(=N)N)NC(=O)[C@H](Cc1c[nH]c2ccccc12)NC(=O)[C@H](Cc1ccccc1)NC(=O)[C@H](CC(=O)O)NC(=O)[C@H](Cc1ccccc1)NC(=O)[C@@H]1CCCN1C(=O)[C@@H](NC(=O)[C@H](CCCCN)NC(=O)[C@H](Cc1c[nH]c2ccccc12)NC(=O)[C@H](CC(C)C)NC(=O)[C@H](Cc1ccc(O)cc1)NC(=O)[C@H](CCC(=O)O)NC(=O)[C@H](CC(C)C)NC(=O)[C@@H](NC(=O)[C@@H](N)Cc1c[nH]c2ccccc12)[C@@H](C)CC)C(C)C)C(C)C)C(N)=O` [E1P47] (H-WILEYLWKVPFDFWRGVI-NH2), the Trp fluorescence emission maximum (λmax) worked out at 356 nm. Moreover, in data set [1], the pIC50 (in general, −log10 of the IC50, conventionally taken in molar units) is 5.14 and the IC95 (in general, the point of the concentration-response curve where the effect stands at 95%) stood at 28.21 µM.

`CCCCCCCCCCCCCCCCCCN(CCCCCCCCCCCCCCCCCC)C(=O)CCC(=O)NCCOCCOCCOCCOCCOCCOCCOCCOCCOCCOCCOCCOCCOCCOCCOCCOCCOCCOCCOCCOCCOCCOCCOCCOCCOCCOCCOCCOCCC(=O)NCCCC[C@H](NC(=O)[C@H](Cc1c[nH]c2ccccc12)NC(=O)[C@H](CC(C)C)NC(=O)[C@H](Cc1ccc(O)cc1)NC(=O)[C@H](CCC(=O)O)NC(=O)[C@H](CC(C)C)NC(=O)[C@@H](NC(=O)[C@@H](N)Cc1c[nH]c2ccccc12)[C@@H](C)CC)C(=O)N[C@H](C(=O)N1CCC[C@H]1C(=O)N[C@@H](Cc1ccccc1)C(=O)N[C@@H](CC(=O)O)C(=O)N[C@@H](Cc1ccccc1)C(=O)N[C@@H](Cc1c[nH]c2ccccc12)C(=O)N[C@@H](CCCNC(=N)N)C(=O)NCC(=O)N[C@H](C(=O)N[C@H](C(N)=O)[C@@H](C)CC)C(C)C)C(C)C` [K-PAdialkyl] (H-WILEYLWK([PEG28-Suc-N(octadecyl)2])VPFDFWRGVI-NH2) had a vesicular bilayer thickness in data set [2] of 9 nm. In addition, the “stability / aspect of the sample” value in data set [3] is listed as “milky”. For the same compound, the CC50 (commonly the concentration giving 50% cytotoxicity) at 24 h in data set [4] was greater than 40 µM. This compound also had a pIC50 in data set [1] of 7.30.

Consider `CC[C@H](C)[C@H](NC(=O)[C@@H](NC(=O)CNC(=O)[C@H](CCCNC(=N)N)NC(=O)[C@H](Cc1c[nH]c2ccccc12)NC(=O)[C@H](Cc1ccccc1)NC(=O)[C@H](CC(=O)O)NC(=O)[C@H](Cc1ccccc1)NC(=O)[C@@H]1CCCN1C(=O)[C@@H](NC(=O)[C@H](CCCCNC(=O)CCOCCOCCOCCOCCOCCOCCOCCOCCOCCOCCOCCOCCOCCOCCOCCOCCOCCOCCOCCOCCOCCOCCOCCOCCOCCOCCOCCOCCNC(=O)[C@@H](N)CSCC(=O)O[C@H]1CC[C@@]2(C)C(=CC[C@H]3[C@@H]4CC[C@H]([C@H](C)CCCC(C)C)[C@@]4(C)CC[C@@H]32)C1)NC(=O)[C@H](Cc1c[nH]c2ccccc12)NC(=O)[C@H](CC(C)C)NC(=O)[C@H](Cc1ccc(O)cc1)NC(=O)[C@H](CCC(=O)O)NC(=O)[C@H](CC(C)C)NC(=O)[C@@H](NC(=O)[C@@H](N)Cc1c[nH]c2ccccc12)[C@@H](C)CC)C(C)C)C(C)C)C(N)=O` [K-PAchol] (H-WILEYLWK([PEG28-X1])VPFDFWRGVI-NH2), for which the “stability / aspect of the sample” value in data set [3] is given as “bluish”. This compound returned a lamellar liquid crystal periodicity in data set [5] of 4.8 nm. In addition, the CC50 at 24 h in data set [4] is greater than 40 µM. Moreover, the pIC50 in data set [1] was 7.05.
